Structures can show the parent of a compound that is named as a salt.

The test deals with T1, HCV polymerase (Hepatitis C virus genotype 1b, UniProt P26663).
T1 construct: a region encoding NS5B (J Virol 1991 March, 65(3), 1105-13, 544 amino acids after deletion of 47 amino acids on the C-terminal); 6xHis (C); made in house; host or cells: Escherichia coli
T1 sequence (P26663 2420-2963): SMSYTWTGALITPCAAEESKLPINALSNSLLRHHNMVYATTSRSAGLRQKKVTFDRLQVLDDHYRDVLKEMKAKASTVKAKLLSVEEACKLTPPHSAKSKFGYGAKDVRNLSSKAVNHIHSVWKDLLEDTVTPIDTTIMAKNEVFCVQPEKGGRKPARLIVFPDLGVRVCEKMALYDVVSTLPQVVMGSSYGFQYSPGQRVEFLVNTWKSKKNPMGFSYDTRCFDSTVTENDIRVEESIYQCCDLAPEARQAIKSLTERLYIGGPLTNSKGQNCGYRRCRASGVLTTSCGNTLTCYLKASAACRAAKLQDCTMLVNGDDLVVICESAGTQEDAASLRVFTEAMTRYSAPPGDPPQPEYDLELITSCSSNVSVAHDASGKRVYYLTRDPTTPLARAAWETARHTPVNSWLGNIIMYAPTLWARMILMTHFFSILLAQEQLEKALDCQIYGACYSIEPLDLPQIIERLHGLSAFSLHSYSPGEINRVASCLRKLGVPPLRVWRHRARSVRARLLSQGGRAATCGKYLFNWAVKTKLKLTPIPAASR
The experiment in a line: biochemical. Further details: species or system HCV BK strain. The procedure, abridged:
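His-tagged NS5B (BK strain, 47-aa C-terminal deletion, E. coli-expressed) at 0.5 μg/ml copied 5 μg/ml run-off RNA bearing the HCV 3′ UTR with 2 μM UTP plus [3H]UTP, 50 μM ATP/GTP, in pH 7.5 Tris with 5 mM MgCl2, 25 °C, 90 min. TCA-precipitated RNA was counted and IC50 calculated.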
`CCOC1CCCN(CCN2CCn3c(c(C4CCCCC4)c4ccc(C(=O)O)cc43)-c3ccccc32)C1` (stereo not shown) [Example 1-324, 13-cyclohexyl-5-[2-(3-ethoxypiperidin-1-yl)ethyl]-6,7-dihydro-5H-benzo[5,6][1,4]diazepino[7,1-a]indole-10-carboxylic acid monohydrochloride] had an IC50 of less than 100 nM.

In the case of `CCOC1CCCN(CCN2CCn3c(c(C4CCCCC4)c4ccc(C(=O)O)cc43)-c3ccc(C)cc32)C1` (stereo not shown) [Example 1-325, 13-cyclohexyl-5-[2-(3-ethoxypiperidin-1-yl)ethyl]-3-methyl-6,7-dihydro-5H-benzo[5,6][1,4]diazepino[7,1-a]indole-10-carboxylic acid monohydrochloride], the IC50 was less than 100 nM. `CCOC1CCCN(CCN2CCn3c(c(C4CCCCC4)c4ccc(C(=O)O)cc43)-c3ccc(Cl)cc32)C1` (stereo not shown) [Example 1-326, 3-chloro-13-cyclohexyl-5-[2-(3-ethoxypiperidin-1-yl)ethyl]-6,7-dihydro-5H-benzo[5,6][1,4]diazepino[7,1-a]indole-10-carboxylic acid monohydrochloride] displayed an IC50 of less than 100 nM. In turn, `CCC1COCCN1CCN1CCn2c(c(C3CCCCC3)c3ccc(C(=O)O)cc32)-c2ccc(Cl)cc21` (stereo not shown) [Example 1-327, 3-chloro-13-cyclohexyl-5-[2-(3-ethylmorpholin-4-yl)ethyl]-6,7-dihydro-5H-benzo[5,6][1,4]diazepino[7,1-a]indole-10-carboxylic acid dihydrochloride] registered an IC50 of less than 100 nM. `CC1CN(CCN2CCn3c(c(C4CCCCC4)c4ccc(C(=O)O)cc43)-c3ccc(Cl)cc32)CCO1` (stereo not shown) [Example 1-328, 3-chloro-13-cyclohexyl-5-[2-(2-methylmorpholin-4-yl)ethyl]-6,7-dihydro-5H-benzo[5,6][1,4]diazepino[7,1-a]indole-10-carboxylic acid dihydrochloride] showed a concentration for half-maximal inhibition (IC50) of less than 100 nM.

In the case of `Cc1ccc2c(c1)N(CCN1CCOC(C)C1)CCn1c-2c(C2CCCCC2)c2ccc(C(=O)O)cc21` (stereo not shown) [Example 1-329, 13-cyclohexyl-3-methyl-5-[2-(2-methylmorpholin-4-yl)ethyl]-6,7-dihydro-5H-benzo[5,6][1,4]diazepino[7,1-a]indole-10-carboxylic acid dihydrochloride], the IC50 was less than 100 nM.

The compound `CNC(=O)N1CCN(CCN2CCn3c(c(C4CCCCC4)c4ccc(C(=O)O)cc43)-c3ccccc32)CC1` [Example 1-330, 13-cyclohexyl-5-[2-(4-methylcarbamoylpiperazin-1-yl)ethyl]-6,7-dihydro-5H-benzo[5,6][1,4]diazepino[7,1-a]indole-10-carboxylic acid dihydrochloride] displayed an IC50 of less than 100 nM. Take `CCCC1CCCN(CCN2CCn3c(c(C4CCCCC4)c4ccc(C(=O)O)cc43)-c3ccccc32)C1` (stereo not shown) [Example 1-331, 13-cyclohexyl-5-[2-(3-propylpiperidin-1-yl)ethyl]-6,7-dihydro-5H-benzo[5,6][1,4]diazepino[7,1-a]indole-10-carboxylic acid dihydrochloride]: the concentration for half-maximal inhibition (IC50) is less than 100 nM. The compound `CCC1CCCCN1CCN1CCn2c(c(C3CCCCC3)c3ccc(C(=O)O)cc32)-c2ccccc21` (stereo not shown) [Example 1-332, 13-cyclohexyl-5-[2-(2-ethylpiperidin-1-yl)ethyl]-6,7-dihydro-5H-benzo[5,6][1,4]diazepino[7,1-a]indole-10-carboxylic acid dihydrochloride] returned an IC50 of less than 100 nM.

With `CCC1CCCCN1CCN1CCn2c(c(C3CCCCC3)c3ccc(C(=O)O)cc32)-c2ccc(C)cc21` (stereo not shown) [Example 1-333, 13-cyclohexyl-5-[2-(2-ethylpiperidin-1-yl)ethyl]-3-methyl-6,7-dihydro-5H-benzo[5,6][1,4]diazepino[7,1-a]indole-10-carboxylic acid dihydrochloride], the IC50 was less than 100 nM.

As for `CCC1CCCCN1CCN1CCn2c(c(C3CCCCC3)c3ccc(C(=O)O)cc32)-c2ccc(Cl)cc21` (stereo not shown) [Example 1-334, 3-chloro-13-cyclohexyl-5-[2-(2-ethylpiperidin-1-yl)ethyl]-6,7-dihydro-5H-benzo[5,6][1,4]diazepino[7,1-a]indole-10-carboxylic acid dihydrochloride], the IC50 is less than 100 nM. With `CC[C@H]1CCCN(CCN2CCn3c(c(C4CCCCC4)c4ccc(C(=O)O)cc43)-c3ccc(Cl)cc32)C1` [Example 1-335, 3-chloro-13-cyclohexyl-5-[2-((S)-3-ethylpiperidin-1-yl)ethyl]-6,7-dihydro-5H-benzo[5,6][1,4]diazepino[7,1-a]indole-10-carboxylic acid dihydrochloride] the figure was less than 100 nM; with `CC[C@@H]1CCCN(CCN2CCn3c(c(C4CCCCC4)c4ccc(C(=O)O)cc43)-c3ccc(Cl)cc32)C1` [Example 1-336, 3-chloro-13-cyclohexyl-5-[2-((R)-3-ethylpiperidin-1-yl)ethyl]-6,7-dihydro-5H-benzo[5,6][1,4]diazepino[7,1-a]indole-10-carboxylic acid dihydrochloride], less than 100 nM; with `CC(C)c1ccc2c(c1)N(CCN1CCCCCC1)CCn1c-2c(C2CCCCC2)c2ccc(C(=O)O)cc21` [Example 1-337, 5-[2-(azepan-1-yl)ethyl]-13-cyclohexyl-3-isopropyl-6,7-dihydro-5H-benzo[5,6][1,4]diazepino[7,1-a]indole-10-carboxylic acid dihydrochloride], less than 100 nM.

For `CCc1ccc2c(c1)N(CCN1CCCCCC1)CCn1c-2c(C2CCCCC2)c2ccc(C(=O)O)cc21` [Example 1-338, 5-[2-(azepan-1-yl)ethyl]-13-cyclohexyl-3-ethyl-6,7-dihydro-5H-benzo[5,6][1,4]diazepino[7,1-a]indole-10-carboxylic acid dihydrochloride], the IC50 was less than 100 nM. As for `CCc1ccc2c(c1)N(CCN1CCCC(C)C1)CCn1c-2c(C2CCCCC2)c2ccc(C(=O)O)cc21` (stereo not shown) [Example 1-339, 13-cyclohexyl-3-ethyl-5-[2-(3-methylpiperidin-1-yl)ethyl]-6,7-dihydro-5H-benzo[5,6][1,4]diazepino[7,1-a]indole-10-carboxylic acid dihydrochloride], the figure is less than 100 nM; as for `CC1CCCN(CCN2CCn3c(c(C4CCCCC4)c4ccc(C(=O)O)cc43)-c3ccc(C(C)C)cc32)C1` (stereo not shown) [Example 1-340, 13-cyclohexyl-3-isopropyl-5-[2-(3-methylpiperidin-1-yl)ethyl]-6,7-dihydro-5H-benzo[5,6][1,4]diazepino[7,1-a]indole-10-carboxylic acid dihydrochloride], less than 100 nM. With `CCC1CCCN(CCN2CCn3c(c(C4CCCCC4)c4ccc(C(=O)O)cc43)-c3ccc(C(C)C)cc32)C1` (stereo not shown) [Example 1-341, 13-cyclohexyl-5-[2-(3-ethylpiperidin-1-yl)ethyl]-3-isopropyl-6,7-dihydro-5H-benzo[5,6][1,4]diazepino[7,1-a]indole-10-carboxylic acid dihydrochloride] the figure was less than 100 nM; with `O=C(O)c1ccc2c(C3CCCCC3)c3n(c2c1)CCN(CCC1CCCN(C2CC2)C1)c1cc(Cl)ccc1-3` (stereo not shown) [Example 1-342, 3-chloro-13-cyclohexyl-5-[2-(1-cyclopropylpiperidin-3-yl)ethyl]-6,7-dihydro-5H-benzo[5,6][1,4]diazepino[7,1-a]indole-10-carboxylic acid dihydrochloride], less than 100 nM. Regarding `CCCc1ccc2c(c1)N(CCN1CCCCC1)CCn1c-2c(C2CCCCC2)c2ccc(C(=O)O)cc21` [Example 1-343, 13-cyclohexyl-5-[2-(piperidin-1-yl)ethyl]-3-propyl-6,7-dihydro-5H-benzo[5,6][1,4]diazepino[7,1-a]indole-10-carboxylic acid dihydrochloride], the half-maximal inhibitory concentration (IC50) was less than 100 nM. In turn, `Cc1cc(COc2ccc3c(c2)N(CC[N+](C)(C)Cc2cc(C)on2)CCn2c-3c(C3CCCCC3)c3ccc(C(=O)O)cc32)no1` [Example 1-344, N-{2-[10-carboxy-13-cyclohexyl-3-(5-methylisoxazol-3-ylmethoxy)-6,7-dihydro-benzo[5,6][1,4]diazepino[7,1-a]indol-5-yl]ethyl}-N,N-dimethyl-N-(5-methylisoxazol-3-ylmethyl)ammonium chloride monohydrochloride] gave a half-maximal inhibitory concentration (IC50) of less than 100 nM. On to `CCOc1ccc2c(c1)N(CCN1CCCC(C)C1)CCn1c-2c(C2CCCCC2)c2ccc(C(=O)O)cc21` (stereo not shown) [Example 1-345, 13-cyclohexyl-3-ethoxy-5-[2-(3-methylpiperidin-1-yl)ethyl]-6,7-dihydro-5H-benzo[5,6][1,4]diazepino[7,1-a]indole-10-carboxylic acid dihydrochloride], for which the IC50 was less than 100 nM. In turn, `CCCc1ccc2c(c1)N(CCN1CCCC(COC)C1)CCn1c-2c(C2CCCCC2)c2ccc(C(=O)O)cc21` (stereo not shown) [Example 1-346, 13-cyclohexyl-5-[2-(3-methoxymethylpiperidin-1-yl)ethyl]-3-propyl-6,7-dihydro-5H-benzo[5,6][1,4]diazepino[7,1-a]indole-10-carboxylic acid dihydrochloride] registered an IC50 of less than 100 nM. As for `CCOc1ccc2c(c1)N(CCN1CCCC(CC)C1)CCn1c-2c(C2CCCCC2)c2ccc(C(=O)O)cc21` (stereo not shown) [Example 1-347, 13-cyclohexyl-3-ethoxy-5-[2-(3-ethylpiperidin-1-yl)ethyl]-6,7-dihydro-5H-benzo[5,6][1,4]diazepino[7,1-a]indole-10-carboxylic acid dihydrochloride], the half-maximal inhibitory concentration (IC50) is less than 100 nM. With `CCC1CCCN(CCN2CCn3c(c(C4CCCCC4)c4ccc(C(=O)O)cc43)-c3ccc(OCc4ccccc4)cc32)C1` (stereo not shown) [Example 1-348, 3-benzyloxy-13-cyclohexyl-5-[2-(3-ethylpiperidin-1-yl)ethyl]-6,7-dihydro-5H-benzo[5,6][1,4]diazepino[7,1-a]indole-10-carboxylic acid dihydrochloride], the IC50 is less than 100 nM.

In general, IC50 refers to the concentration at which inhibition is half-maximal.

The values are drawn from patent US20070049593A1 (priority 2004, published 2007).
